According to paper PMC12586182 (Frontiers in Oncology, 2025):

Columns and labels:
Assay in all cases: Cell viability assay (ATPlite)
Assay type in all cases: cell-based
A-172 = conditions: Homo sapiens; A-172 cell line, 72 hours incubation
Procedure: (§1) Intracellular ATP content was used as an indirect readout of cell number using the ATPlite 1Step bioluminescence assay (Revvity, Groningen, the Netherlands). Cells were seeded in 384-well plates at an optimized density to ensure unrestricted growth and maximal signal at the end of the experiment. After 24 hours of incubation, the starting cell number was determined by adding ATPlite to each well of a control plate and recording luminescence on an Envision multimode reader (Revvity, Waltham, MA, USA) ([4]). Compounds were diluted in DMSO in √10-fold steps from 10 mmol/L stocks to obtain 9-point dilution series. After further 31.6-fold dilution in 20 mmol/L HEPES (pH 7.4), the dilution series were added in duplicate to the cells in the 384-well plates to determine the effect of the compounds on cell viability. Vehicle-treated controls were included to determine maximal cell proliferation. The final DMSO concentration was 0.4% (v/v) in all wells. After incubation for an additional 72 hours, the ATP content was measured in each well using ATPlite. The luminescent signal in inhibitor-treated wells was normalized to vehicle-treated control wells to determine the percentage viability at each concentration. Cell doublings were determined by relating the cell number of vehicle-treated controls to the starting cell number for each cell line. The viability assay of a cell line was repeated when the cell doubling deviated > 2-fold from the historic doubling as determined by multiple independent experiments. The quality of the complete assay was determined by a parallel test with doxorubicin on two cell lines. IC50 values were calculated by fitting a four-parameter logistic model to the percentage viability values using IDBS XLfit5 (IDBS, Guildford, United Kingdom). All curves were visually inspected and submitted to an F-test as implemented in IDBS XLfit5. Curves with an F-value above 1.5 were invalidated and IC50 values were maximized at the highest concentration.

A-673 = conditions: Homo sapiens, A673; A-673 cell line, 72 hours incubation
Procedure: as §1

A-704 = conditions: Homo sapiens, A704; A-704 cell line, 72 hours incubation
Procedure: as §1

BL-70 = conditions: Homo sapiens; BL-70 cell line, 72 hours incubation
Procedure: as §1

BT-20 = conditions: Homo sapiens; BT-20 cell line, 72 hours incubation
Procedure: as §1

DEL = conditions: Homo sapiens; DEL cell line, 72 hours incubation
Procedure: as §1

DoTc2 4510 = conditions: Homo sapiens; DoTc2 4510 cell line, 72 hours incubation
Procedure: as §1

ES-2 = conditions: Homo sapiens; ES-2 cell line, 72 hours incubation
Procedure: as §1

HCC827 = conditions: Homo sapiens; HCC827 cell line, 72 hours incubation
Procedure: as §1

HEC-1-B = conditions: Homo sapiens; HEC-1-B cell line, 72 hours incubation
Procedure: as §1

HEC-251 = conditions: Homo sapiens; HEC-251 cell line, 72 hours incubation
Procedure: as §1

HT-1080 = conditions: Homo sapiens; HT-1080 cell line, 72 hours incubation
Procedure: as §1

J82 = conditions: Homo sapiens; J82 cell line, 72 hours incubation
Procedure: as §1

K-562 = conditions: Homo sapiens, K562; K-562 cell line, 72 hours incubation
Procedure: as §1

Ku812 = conditions: Homo sapiens; Ku812 cell line, 72 hours incubation
Procedure: as §1

MSTO-211H = conditions: Homo sapiens; MSTO-211H cell line, 72 hours incubation
Procedure: as §1

NCI-H1650 = conditions: Homo sapiens; NCI-H1650 cell line, 72 hours incubation
Procedure: as §1

NCI-H460 = conditions: Homo sapiens; NCI-H460 cell line, 72 hours incubation
Procedure: as §1

NCI-H716 = conditions: Homo sapiens; NCI-H716 cell line, 72 hours incubation
Procedure: as §1

NCI-H82 = conditions: Homo sapiens; NCI-H82 cell line, 72 hours incubation
Procedure: as §1

OVCAR-3 = conditions: Homo sapiens; OVCAR-3 cell line, 72 hours incubation
Procedure: as §1

PC-3 = conditions: Homo sapiens; PC-3 cell line, 72 hours incubation
Procedure: as §1

RKO = conditions: Homo sapiens; RKO cell line, 72 hours incubation
Procedure: as §1

RS4;11 = conditions: Homo sapiens; RS4;11 cell line, 72 hours incubation
Procedure: as §1

SHP-77 = conditions: Homo sapiens, SHP77; SHP-77 cell line, 72 hours incubation
Procedure: as §1

SK-N-FI = conditions: Homo sapiens; SK-N-FI cell line, 72 hours incubation
Procedure: as §1

SNU-16 = conditions: Homo sapiens; SNU-16 cell line, 72 hours incubation
Procedure: as §1

THP-1 = conditions: Homo sapiens; THP-1 cell line, 72 hours incubation
Procedure: as §1

U-87MG ATCC = conditions: Homo sapiens; U-87MG ATCC cell line, 72 hours incubation
Procedure: as §1

U2OS = conditions: Homo sapiens; U2OS cell line, 72 hours incubation
Procedure: as §1

UWB1.289 = conditions: Homo sapiens, UWB1289; UWB1.289 cell line, 72 hours incubation
Procedure: as §1

Work on `O=C(c1ccc(Oc2ccccc2)cc1Cl)c1c[nH]c2ncnc(N[C@@H]3CC[C@@H](CO)OC3)c12` [nemtabrutinib] yielded an IC50 (A-172) of 10.6 µM, an IC50 (A-673) of 3.6 µM and an IC50 (A-704) of 16.3 µM. It also gave an IC50 (BL-70) of 0.498 µM, an IC50 (BT-20) of 14.5 µM and an IC50 (DEL) of 15.4 µM. The IC50 (DoTc2 4510) was 1.41 µM, the IC50 (ES-2) was 0.929 µM and the IC50 (HCC827) was 4.72 µM. It also gave an IC50 (HEC-1-B) of 0.376 µM, an IC50 (HEC-251) of 0.178 µM and an IC50 (HT-1080) of 4.8 µM. The IC50 (J82) was 7.93 µM, the IC50 (K-562) was 2.57 µM and the IC50 (Ku812) was 1.43 µM. It also gave an IC50 (MSTO-211H) of 3.86 µM, an IC50 (NCI-H1650) of 9.8 µM and an IC50 (NCI-H460) of 5.73 µM. The IC50 (NCI-H716) was 1.46 µM, the IC50 (NCI-H82) was 12.3 µM and the IC50 (OVCAR-3) was 0.578 µM. It also gave an IC50 (PC-3) of 26.8 µM, an IC50 (RKO) of 1.22 µM and an IC50 (RS4;11) of 7.8 µM. It also gave an IC50 (SHP-77) of 14.6 µM, an IC50 (SK-N-FI) of 3.94 µM and an IC50 (SNU-16) of 1.81 µM. It also gave an IC50 (THP-1) of 1.55 µM, an IC50 (U-87MG ATCC) of 12 µM and an IC50 (U2OS) of 2.67 µM. It also gave an IC50 (UWB1.289) of 2.49 µM.
